The source of these data is patent US10757937B2, “Sulfonamides that activate ABA receptors” (The Regents of the University of California, priority 2014, dated 2020).

What all share (assay): receptor-mediated PP2C (HAB1) inhibition in vitro assay
Common to all, as to format: biochemical

One assay has as its target T1, PYL9 (Arabidopsis thaliana, UniProt Q84MC7).
T1 construct: 6X-His; made in house; host or cells: E. coli BL21[DE3]pLysS
T1 sequence (Q84MC7 1-187): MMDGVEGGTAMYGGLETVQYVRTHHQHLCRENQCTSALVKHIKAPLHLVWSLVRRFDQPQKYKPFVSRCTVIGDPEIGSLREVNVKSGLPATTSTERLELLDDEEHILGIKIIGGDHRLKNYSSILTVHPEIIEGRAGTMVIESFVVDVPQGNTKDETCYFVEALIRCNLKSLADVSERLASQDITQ
T1 sequence (Q9CAJ0 23-511 partner): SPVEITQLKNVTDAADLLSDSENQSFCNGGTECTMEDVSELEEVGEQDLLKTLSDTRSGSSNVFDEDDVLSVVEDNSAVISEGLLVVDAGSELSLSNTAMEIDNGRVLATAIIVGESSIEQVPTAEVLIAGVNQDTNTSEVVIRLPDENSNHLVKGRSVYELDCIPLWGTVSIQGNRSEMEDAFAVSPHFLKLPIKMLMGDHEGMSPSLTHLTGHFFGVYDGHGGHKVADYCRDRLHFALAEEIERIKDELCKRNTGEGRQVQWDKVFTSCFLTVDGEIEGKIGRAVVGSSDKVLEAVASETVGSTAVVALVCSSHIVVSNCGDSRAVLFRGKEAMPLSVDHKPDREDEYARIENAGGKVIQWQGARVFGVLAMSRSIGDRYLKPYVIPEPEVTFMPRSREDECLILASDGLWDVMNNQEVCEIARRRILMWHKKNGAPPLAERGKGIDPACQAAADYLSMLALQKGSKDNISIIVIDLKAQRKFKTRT
Conditions: for remaining activity at 25 µM: compound at 25 μM, control without agonist = 100%; for remaining activity at 50 µM: 50 uM of the test compound. Summed up:
(§1)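 Fluorogenic readout: 4-methylumbelliferyl-phosphate hydrolysis by 50 nM GST-HAB1 plus 2:1 His-receptor; Tris-OAc pH 7.9, NaCl, 1 mM MnCl2, β-ME. Compounds at 25 μM or 50 uM single dose; IC50 from dose curves for selected compounds.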

The next assay addresses T2, PYL4 (Arabidopsis thaliana, UniProt O80920).
T2 construct: 6X-His; made in house; host or cells: E. coli BL21[DE3]pLysS
T2 sequence (O80920 1-207): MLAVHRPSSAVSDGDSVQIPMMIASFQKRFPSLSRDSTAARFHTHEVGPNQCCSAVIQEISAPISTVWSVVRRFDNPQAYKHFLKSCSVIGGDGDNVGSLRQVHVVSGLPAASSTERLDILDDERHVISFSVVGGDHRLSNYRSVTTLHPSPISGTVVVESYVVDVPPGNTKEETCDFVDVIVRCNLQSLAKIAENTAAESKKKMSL
T2 sequence (Q9CAJ0 23-511 partner): T1 sequence (Q9CAJ0 23-511 partner)
The settings on record: for remaining activity at 25 µM: compound at 25 μM, control without agonist = 100%; for remaining activity at 50 µM: 50 uM of the test compound. In outline: as §1

The target of another assay is T3, PYL11 (Arabidopsis thaliana, UniProt Q9FJ50).
T3 construct: made in house; host or cells: E. coli BL21[DE3]pLysS
T3 sequence (Q9FJ50 1-161): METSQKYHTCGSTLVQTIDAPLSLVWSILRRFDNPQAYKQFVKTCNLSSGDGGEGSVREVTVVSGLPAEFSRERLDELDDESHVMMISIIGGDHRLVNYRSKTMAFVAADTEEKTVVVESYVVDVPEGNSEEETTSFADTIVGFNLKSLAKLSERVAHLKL
T3 sequence (Q9CAJ0 23-511 partner): T1 sequence (Q9CAJ0 23-511 partner)
The settings on record: for remaining activity at 50 µM: 50 uM of the test compound. In outline:
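His-tagged receptors (MBP fusion for PYL11) at 2:1 ratio to 50 nM GST-HAB1 in 100 mM Tris-OAc pH 7.9, 100 mM NaCl, 1 mM MnCl2; 4-methylumbelliferyl-phosphate fluorogenic substrate. Compounds at 50 uM (ABA 10 uM); IC50 from dose curves for selected compounds.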

The next assay concerns the target T4, PYL8 (Arabidopsis thaliana, UniProt Q9FGM1).
T4 construct: 6X-His; made in house; host or cells: E. coli BL21[DE3]pLysS
T4 sequence (Q9FGM1 1-188): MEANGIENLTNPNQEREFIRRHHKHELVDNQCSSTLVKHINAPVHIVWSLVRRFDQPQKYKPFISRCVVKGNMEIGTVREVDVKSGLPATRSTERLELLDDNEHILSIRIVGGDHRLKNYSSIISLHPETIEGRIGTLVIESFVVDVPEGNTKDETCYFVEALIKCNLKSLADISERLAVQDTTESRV
T4 sequence (Q9CAJ0 23-511 partner): T1 sequence (Q9CAJ0 23-511 partner)
The settings on record: for remaining activity at 25 µM: compound at 25 μM, control without agonist = 100%; for remaining activity at 50 µM: 50 uM of the test compound. In outline:
as §1

The next assay addresses T5, PYL6 (Arabidopsis thaliana, UniProt Q8S8E3).
T5 construct: 6X-His; made in house; host or cells: E. coli BL21[DE3]pLysS
T5 sequence (Q8S8E3 1-215): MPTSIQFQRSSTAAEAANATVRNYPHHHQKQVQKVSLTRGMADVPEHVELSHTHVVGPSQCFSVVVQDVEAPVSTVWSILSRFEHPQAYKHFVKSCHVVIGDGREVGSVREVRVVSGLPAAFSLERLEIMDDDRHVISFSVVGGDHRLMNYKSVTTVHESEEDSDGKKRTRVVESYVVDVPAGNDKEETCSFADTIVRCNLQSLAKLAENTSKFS
T5 sequence (Q9CAJ0 23-511 partner): T1 sequence (Q9CAJ0 23-511 partner)
Conditions: for remaining activity at 50 µM: 50 uM of the test compound. Summed up:
as §1

The next assay addresses T6, PYL10 (Arabidopsis thaliana, UniProt Q8H1R0).
T6 construct: 6X-His; made in house; host or cells: E. coli BL21[DE3]pLysS
T6 sequence (Q8H1R0 1-183): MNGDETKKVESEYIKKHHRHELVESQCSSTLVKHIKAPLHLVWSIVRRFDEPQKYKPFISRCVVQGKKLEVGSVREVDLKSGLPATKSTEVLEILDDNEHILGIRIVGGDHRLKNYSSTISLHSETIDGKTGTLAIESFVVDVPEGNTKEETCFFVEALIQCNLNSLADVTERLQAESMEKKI
T6 sequence (Q9CAJ0 23-511 partner): T1 sequence (Q9CAJ0 23-511 partner)
The settings on record: for remaining activity at 50 µM: 50 uM of the test compound. In outline:
as §1

Setting [1] is: Table VII, read-out: PP2C Dose Curves PYL9 (IC50).
Where [2] appears, read: Table VII, read-out: PP2C Dose Curves PYL11 (IC50).
Setting [3] is: Table VII, read-out: PP2C Dose Curves PYL8 (IC50).
[4] abbreviates: Table VII, read-out: PP2C Dose Curves PYL6 (IC50).
Where [5] appears, read: Table VII, read-out: PP2C Dose Curves PYL10 (IC50).
Setting [6] is: Table XII-B, calculated from dose curves, read-out: PP2C Activity (IC50 in uM) PYL9.
[7] abbreviates: Table XII-B, calculated from dose curves, read-out: PP2C Activity (IC50 in uM) PYL4.
The mark [8] stands for this setting: Table XII-B, calculated from dose curves, read-out: PP2C Activity (IC50 in uM) PYL11.
[9] abbreviates: Table XII-B, calculated from dose curves, read-out: PP2C Activity (IC50 in uM) PYL8.
The mark [10] stands for this setting: Table XII-B, calculated from dose curves, read-out: PP2C Activity (IC50 in uM) PYL6.
Setting [11] is: Table XII-B, calculated from dose curves, read-out: PP2C Activity (IC50 in uM) PYL10.

Like-named read-outs stand apart in the source and are kept apart here.

As to `N#Cc1ccc(CS(=O)(=O)NC(=O)C2(c3ccc(F)cc3)CC2)cc1` [Compound 35], the IC50 was 27.2 µM at PYL9 (setting [1]); 3.29 µM on PYL11 (setting [2]); > 50 µM on PYL8 (setting [3]); 34.7 µM at PYL6 (setting [4]); > 50 µM on PYL10 (setting [5]). The remaining activity at 25 µM on PYL9 was 49%; at PYL4 it was 94%; at PYL8, 62%.
Consider `COc1ccccc1C1(C(=O)NS(=O)(=O)Cc2ccc(C#N)cc2)CCC1` [Compound 42], for which the IC50 on PYL9 (setting [1]) was 17.4 µM; at PYL11 (setting [2]) it was 14.7 µM; on PYL8 (setting [3]), 52.4 µM; on PYL6 (setting [4]), > 50 µM; on PYL10 (setting [5]) it was 17.9 µM. The values for the remaining activity at 25 µM on PYL9, on PYL4 and on PYL8 were 42%, 88% and 65%, respectively.
For the molecule `Cc1ccccc1C1(C(=O)NS(=O)(=O)Cc2ccc(C#N)cc2)CC1` [Compound 44], the IC50 was 21.1 µM on PYL9 (setting [1]); 13.3 µM on PYL11 (setting [2]); 49.5 µM at PYL8 (setting [3]); 12.2 µM on PYL6 (setting [4]); 79.1 µM at PYL10 (setting [5]). The figures for the remaining activity at 25 µM at PYL9, on PYL4 and at PYL8 were 50%, 89% and 63%, respectively.
As for `N#Cc1ccc(CS(=O)(=O)NC(=O)C2(c3cccc(C#N)c3)CC2)cc1` [Compound 50], the IC50 on PYL9 (setting [1]) was 5.76 µM; on PYL4 (Table VII, read-out: PP2C Dose Curves PYL4 (IC50)), > 50 µM; at PYL11 (setting [2]), 2.52 µM; on PYL8 (setting [3]), 8.39 µM; on PYL6 (setting [4]), 2.43 µM; on PYL10 (setting [5]), > 50 µM. The remaining activity at 25 µM on PYL9 amounted to 18%; at PYL4, 67%; at PYL8 it was 36%.
As for `N#Cc1ccc(CS(=O)(=O)NC(=O)C2(c3ccc(F)cc3)CCCCC2)cc1` [Compound 51], the IC50 at PYL9 (setting [1]) is 0.04 µM; at PYL11 (setting [2]), 5.33 µM; on PYL8 (setting [3]), 1.11 µM; at PYL6 (setting [4]), > 50 µM; at PYL10 (setting [5]), 4.46 µM. Also, the remaining activity at 25 µM at PYL9 was 8%; on PYL4 it was 93%; on PYL8, 16%. In addition, on PYL9 (five- and six-membered rings at alpha carbon), the “PYL9 agonist potency and selectivity” value was “potent and relatively selective PYL9 agonists”.
With `O=C(NS(=O)(=O)Cc1ccc([N+](=O)[O-])cc1)C1(c2ccccc2)CCCCC1` [Compound 63], the remaining activity at 50 µM at PYL9 is 75.5%; on PYL4, 103%; at PYL11, 92.6%; on PYL8 it was 96.6%; on PYL6 it was 108%; on PYL10, 88.9%. Besides, the IC50 at PYL9 (setting [6]), at PYL4 (setting [7]), on PYL11 (setting [8]), on PYL8 (setting [9]), on PYL6 (setting [10]) and at PYL10 (setting [11]) was > 50 µM in each case.
Consider `O=C(NS(=O)(=O)Cc1ccc(F)cc1)C1(c2ccccc2)CCCCC1` [Compound 64], for which the remaining activity at 50 µM on PYL9 was 91.1%; at PYL4 it was 105%; on PYL11, 97.5%; on PYL8, 101%; on PYL6 it was 109%; on PYL10, 89.8%. Also, the IC50 at PYL9 (setting [6]), on PYL4 (setting [7]), at PYL11 (setting [8]), at PYL8 (setting [9]), at PYL6 (setting [10]) and on PYL10 (setting [11]) was > 50 µM in each case.
With `CC(C)COC(=O)NS(=O)(=O)Cc1ccc(C#N)cc1` [Compound 65, 2-Methylpropyl N-[(4-cyanophenyl)methanesulfonyl]carbamate], the remaining activity at 50 µM at PYL9 amounted to 18.6%; on PYL4 it was 95.5%; on PYL11, 42.1%; on PYL8 it was 35.8%; on PYL6, 58.9%; at PYL10, 39.2%. For the same molecule, the IC50 at PYL9 (setting [6]) was 6.5 µM; at PYL4 (setting [7]) it was > 50 µM; at PYL8 (setting [9]) it was 20.4 µM; at PYL6 (setting [10]), > 50 µM; on PYL10 (setting [11]) it was 19.2 µM.
For `CC1CCC(C(=O)NS(=O)(=O)Cc2ccc(C#N)cc2)(c2ccc(F)cc2)CC1` (centres unmarked) [Compound 67, N-[(4-Cyanophenyl)methanesulfonyl]-1-(4-fluorophenyl)-4-methylcyclohexane-1-carboxamide], the remaining activity at 50 µM amounted to 8% on PYL9; 91.9% at PYL4; 14.7% at PYL11; 25.8% on PYL8; 46.6% on PYL6; 48.2% on PYL10. Further, the IC50 at PYL9 (setting [6]) is 2.13 µM; on PYL4 (setting [7]) it was > 50 µM; on PYL11 (setting [8]), 3.13 µM; on PYL8 (setting [9]) it was 9.6 µM.
In the case of `CC1(C)CCC(C(=O)NS(=O)(=O)Cc2ccc(C#N)cc2)(c2ccc(F)cc2)CC1` [Compound 68, N-[(4-Cyanophenyl)methanesulfonyl]-1-(4-fluorophenyl)-4,4-dimethylcyclohexane-1-carboxamide], the remaining activity at 50 µM on PYL9 worked out at 22.6%; at PYL4, 94%; on PYL11, 16.2%; on PYL8, 57.5%; on PYL6, 46.6%; at PYL10, 83.3%. Moreover, the IC50 at PYL9 (setting [6]) is 17.7 µM; on PYL4 (setting [7]), > 50 µM; on PYL11 (setting [8]), 2.22 µM; on PYL8 (setting [9]) it was > 50 µM; at PYL10 (setting [11]) it was > 50 µM.

As usually defined, the IC50 is the concentration at which inhibition is half-maximal.
